The subject of one data set is GST-PI3K SH2. The experiment in a line: Fluorescence titration of peptides with GST-PI3K SH2 (non-target domain). It is filed as binding. The following applies: peptide saturated with GST-PI3K SH2, 565 nm (FIG. 1c). Here is the method: (§1) The peptides of Table 1 were incubated with targeted and nontargeted SH2 domains. The binding of peptides Crk-bp, Crk-bp2, Abl-bp, and Abl-bp2 to SH2 target domains can be studied by fluorescence titration as shown in FIGS. 1-4.
(§2) Fluorescence titrations of Crk-bp and Crk-bp2 with targeted GST-Crk SH2 are shown in FIG. 1 (a) and (b), respectively. Fluorescence titrations of Crk-bp and Crk-bp2 with non-targeted GST-Abl SH2 are shown in FIG. 4 (a) and (b), respectively.
Peptide stock solutions of known concentration (determined by UV absorbance at 388 nm, E=7980 M−1 cm−1) were used to prepare 5 μM peptide concentration samples in buffered water (150 μL total volume, 100 mM NaCl, 10 mM sodium phosphate, pH 7.5). 2 μL aliquots of the corresponding stock protein solution (GST-Crk SH2, GST-Abl SH2 or GST-PI3K SH2, concentration determined by Bio-Rad Protein Assay) were consecutively added, and fluorescence emission spectra were recorded 1 minute after each addition (excitation 395 nm, 2 nm excitation and emission slit width). […]
Src and PI3K SH2 domains were expressed and purified as GST fusion following reported procedures. […] Proteins were quantified using the Micro BCA protein Assay Kit (Pierce) relative to a BSA standard. All fusion proteins were analyzed by Coomasie staining and Western analysis with anti-GST antibodies.

In the next data set the target is T1, GST-Abl SH2 (Homo sapiens, UniProt P00519).
T1 construct: The SH2 domain was cloned using BamH1 (5′) EcoR1 (3′) sites; made in house; host or cells: E. coli (plasmid received from elsewhere; strain not clearly stated for Abl)
T1 sequence (P00519 127-217 limits assumed): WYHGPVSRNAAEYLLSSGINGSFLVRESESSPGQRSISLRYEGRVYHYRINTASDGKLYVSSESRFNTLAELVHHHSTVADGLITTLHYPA
In words: Fluorescence titration of peptides with GST-Abl SH2, determination of Kd. The class given is binding. Here is the method: as §1
Fluorescence titrations of Abl-bp with non-targeted GST-PI3K SH2 and […] are shown in FIG. 2 (b) and 4 (c), respectively. The relative fluorescence emission intensities for the Abl-bp peptide and aforementioned SH2 domain titrations are shown in FIG. 2 (c).
Fluorescence titrations Abl-bp2 with non-targeted GST-PI3K SH2 and GST-Crk SH2 are shown in FIGS. 3 (b) and 4 (d), respectively. The relative fluorescence emission intensities for the Abl-bp2 peptide and aforementioned SH2 domain titrations are shown in FIG. 3 (c).
(§3) Peptide stock solutions of known concentration (determined by UV absorbance at 388 nm, E=7980 M−1 cm−1) were used to prepare 5 μM peptide concentration samples in buffered water (150 μL total volume, 100 mM NaCl, 10 mM sodium phosphate, pH 7.5). 2 μL aliquots of the corresponding stock protein solution (GST-Crk SH2, GST-Abl SH2 or GST-PI3K SH2, concentration determined by Bio-Rad Protein Assay) were consecutively added, and fluorescence emission spectra were recorded 1 minute after each addition ([…], 2 nm excitation and emission slit width). The increase in emission intensity at the maximum emission wavelength was plotted against total protein concentration and fitted by least-square analysis assuming a 1 to 1 binding mode to obtain the apparent Kd.
Abl-SH2 was received as a GST fusion in a pGEX-KT vector, amp-resistant, IPTG-inducible. The SH2 domain was cloned using BamH1 (5′) EcoR1 (3′) sites.

The target in a further data set is GST-Crk SH2 (Homo sapiens, UniProt P46108). The experiment in a line: Fluorescence titration of peptides with GST-Crk SH2, determination of Kd. It is filed as binding. Details: Human Crk SH2 domain was expressed as a GST fusion protein; made in house; host or cells: E. coli NB42. The procedure: as §1, §2, §3
Human Crk SH2 domain was expressed as a GST fusion protein transformed into E. coli NB42 strain. Expression of SH2 domains was carried out following reported conditions. […]

For data set [1] the following is noted: in 0.1 M H2SO4; Melhuish 1961; cited from earlier work.
Data set [2] is described as follows: Photophysical properties: UV absorbance, fluorescence emission and quantum yield in different solvents. It is filed as physicochemical. The conditions noted are these: water; calculated using peptide Abl-bp; vs. quinine sulfate standard. Here is the method:
Quantum yields (Φ) were measured by comparison with a standard, which emits in a similar region to the test sample. From the available standard compounds quinine sulfate in 0.1 M H2SO4 (Φ=0.54) was selected.
UV absorbance at the excitation wavelength (375 nm), and fluorescence emission spectra of a series of solutions of the standard and compound were recorded. Solutions were prepared with different absorbances, ranging from 0 (solvent blank) to 0.1. A series of graphs of integrated fluorescence vs. absorbance were obtained. The data were fitted to a linear equation with gradient (grad), and intercept=0. See FIG. 5 as an example of the plots obtained.
The gradients of graphs in FIG. 5 are proportional to the quantum yield of the different samples. Absolute values were calculated using the standard sample, which has a fixed and known fluorescence quantum yield value, according to the following equation: […]
Where the subscripts std and x denote standard and test respectively. The value Φ is the fluorescence quantum yield, grad is the gradient (grad) from the plot of integrated fluorescence intensity vs. absorbance, and η the refractive index of the solvent.
The UV absorbance spectra (40 μM in methanol) and fluorescence emission spectra of compound (VIII), 6DMN-GlyOMe are shown in FIG. 6 and tabulated in Table 4. The UV spectrum of 6DMN-GlyOMe has an intense absorption band at 378 nm which is not found in unsubstituted 2,3-naphthalimides. The maximum excitation wavelength of 6DMN-GlyOMe is at 375 nm.
Quantum yields (Φ) were measured in the solvents listed in Table 2 by comparison with a standard, which emits in a similar region to 6DMN-GlyOMe. Quinine sulfate in 0.1 M H2SO4 (Φ=0.54) was used as the standard. (Melhuish, W. B. J. Phys. Chem., 1961, 65, 229-235). Solutions were prepared at different concentrations such that the absorbance measurements ranged between 0 and 0.1 at and above the excitation wavelength to avoid non-linear effects.
UV absorbance at the excitation wavelength (375 nm), and fluorescence emission spectra of a series of solutions of the standard and 6DMN-GlyOMe were recorded. A series of graphs of integrated fluorescence vs. absorbance were obtained. The data were fitted to a linear equation with gradient (grad), and intercept=0. The gradient (grad) is proportional to the quantum yield of the sample. Absolute values were calculated using the standard sample, which has a fixed and known fluorescence quantum yield value, according to the equation above.

In general, Kd refers to the free concentration of one partner at which half of the binding sites on the other are occupied at equilibrium, for simple one-to-one binding. High values mean weaker binding, low ones tighter binding.

Structures can show the parent of a compound that is named as a salt. Non-standard residues stand in square brackets, D forms with d. Residues, ends and D or L forms follow the SMILES beside them. Dap(6-DMN) = CN(C)c1ccc2cc3c(cc2c1)C(=O)N(C[C@H](N)C(=O)O)C3=O; pY = N[C@@H](Cc1ccc(OP(=O)(O)O)cc1)C(=O)O

As for `CC[C@H](C)[C@H](NC(=O)[C@H](CC(N)=O)NC(=O)[C@@H]1CCCN1C(=O)[C@H](Cc1c[nH]cn1)NC(=O)[C@H](CC(=O)O)NC(=O)[C@H](Cc1ccc(OP(=O)(O)O)cc1)NC(=O)[C@H](CCC(N)=O)NC(=O)[C@H](CN1C(=O)c2cc3ccc(N(C)C)cc3cc2C1=O)NC(=O)CNC(C)=O)C(N)=O` [Crk-bp2, Ac-Gly-Dap(6DMN)-Gln-pTyr-Asp-His-Pro-Asn-Ile-(CONH2) (SEQ ID NO: 5)] (Ac-G[Dap(6-DMN)]Q[pY]DHPNI-NH2), the “relative fluorescence emission intensity with non-target SH2 domain compared with targeted GST-Crk SH2” value in the data set with GST-PI3K SH2 was “notably less”; on GST-Abl SH2 (peptide saturated with GST-Abl SH2, 565 nm (FIG. 1c)), “notably less”.
For the molecule `CC[C@H](C)[C@H](NC(=O)[C@H](CC(N)=O)NC(=O)[C@@H]1CCCN1C(=O)[C@H](Cc1c[nH]cn1)NC(=O)[C@H](CC(=O)O)NC(=O)[C@H](Cc1ccc(OP(=O)(O)O)cc1)NC(=O)[C@H](CCC(N)=O)NC(=O)[C@H](CN1C(=O)c2cc3ccc(N(C)C)cc3cc2C1=O)NC(=O)[C@H](CCC(=O)O)NC(C)=O)C(N)=O` [Crk-bp, Ac-Glu-Dap(6DMN)-Gln-pTyr-Asp-His-Pro-Asn-Ile-(CONH2) (SEQ ID NO: 1)] (Ac-E[Dap(6-DMN)]Q[pY]DHPNI-NH2), the Kd at GST-Crk SH2 was determined as 4.8 ± 2 µM. On GST-Crk SH2 (target Crk SH2, excitation 375 nm, emission 565 nm), this molecule showed a Fluorescence increase of 500%^b.
For the molecule `C=C[C@H]1C[N@@]2CC[C@H]1C[C@H]2[C@H](O)c1ccnc2ccc(OC)cc12` [quinine sulfate], the “quantum yield (Φ) of the standard” value in data set [1] was 0.54.
In turn, “Ac-Dap(6DMN)-Gln-pTyr-Glu-Asn-Val-Gln-Ser-(CONH2) (SEQ OD NO: 7) [Abl-bp2]” returned a Kd on GST-Abl SH2 (target Abl SH2, 20 μM in PBS buffer, pH 7.5) of 12 ± 2 µM.
Regarding “Ac-Gly-Dap(6DMN)-Gln-pTyr-Glu-Asn-Val-Gln-Ser-(CONH2) (SEQ ID NO: 6) (Ac-G[Dap(6DMN)]Q[pY]ENVQS-NH2) [Abl-bp]”, the “quantum yield (Φ)” value in data set [2] is on record as 0.002. In the data set with GST-Abl SH2 (target Abl SH2, excitation 375 nm, emission 599 nm), this molecule displayed a Fluorescence increase of 400%^c.
